Target: T1, SauUSI (Staphylococcus aureus, UniProt A0A0H2XK17)
T1 sequence (A0A0H2XK17 1-953): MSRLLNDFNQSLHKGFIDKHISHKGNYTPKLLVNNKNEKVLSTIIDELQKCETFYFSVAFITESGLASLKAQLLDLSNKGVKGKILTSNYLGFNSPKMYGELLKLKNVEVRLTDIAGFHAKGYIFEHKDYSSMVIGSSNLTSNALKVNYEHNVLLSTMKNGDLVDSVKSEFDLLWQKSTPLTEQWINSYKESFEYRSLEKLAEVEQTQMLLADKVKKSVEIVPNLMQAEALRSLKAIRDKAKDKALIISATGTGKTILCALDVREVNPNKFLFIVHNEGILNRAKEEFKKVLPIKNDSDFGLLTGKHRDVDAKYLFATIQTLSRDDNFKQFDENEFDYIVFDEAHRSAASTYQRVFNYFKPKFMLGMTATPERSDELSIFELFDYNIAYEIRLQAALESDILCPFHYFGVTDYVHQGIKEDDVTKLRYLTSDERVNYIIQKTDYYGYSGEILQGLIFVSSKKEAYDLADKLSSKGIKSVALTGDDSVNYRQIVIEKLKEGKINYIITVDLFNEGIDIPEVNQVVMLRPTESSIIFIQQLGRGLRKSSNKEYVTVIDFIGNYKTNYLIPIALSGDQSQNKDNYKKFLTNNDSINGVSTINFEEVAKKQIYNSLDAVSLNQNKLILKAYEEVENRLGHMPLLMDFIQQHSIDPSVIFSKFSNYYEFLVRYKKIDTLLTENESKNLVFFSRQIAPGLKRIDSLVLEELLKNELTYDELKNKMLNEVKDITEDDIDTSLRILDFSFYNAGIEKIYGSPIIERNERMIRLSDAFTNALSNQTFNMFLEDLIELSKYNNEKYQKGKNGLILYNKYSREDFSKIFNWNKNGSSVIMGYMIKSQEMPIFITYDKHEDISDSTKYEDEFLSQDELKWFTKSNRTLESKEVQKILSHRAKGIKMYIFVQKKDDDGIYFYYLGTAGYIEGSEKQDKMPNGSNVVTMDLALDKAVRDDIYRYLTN
Experiment: biochemical

## Nc1ncnc2c1ncn2[C@@H]1O[C@H](COP(=O)(O)OP(=O)(O)OP(=O)(O)O)[C@@H](O)[C@H]1O [ATP]
  IC50: ~760 µM
